One data set relates to RKO cells. As to the kind of experiment: MTS cell viability assay, RKO cells. Format: cell-based. The note with it: Homo sapiens, 72 h. The source says: (§1) Human colorectal cancer cell lines including RKO, SW620 and SW480 were purchased from Chinese Academy of Sciences, a typical cell library culture preservation committee (Shanghai, China). Normal human colon epithelial cell line NCM460 was purchased from ATCC (Washington, DC, USA). RPMI-1640 medium (12633020), foetal bovine serum (FBS, 26170043), penicillin-streptomycin (10378016) and phosphate buffered saline (PBS, 70011044) were purchased from Gibco (Eggenstein, Germany). 5-Fluorouracil (5-FU, E0201010050, purity ≥98%) was purchased from Energy Chemical (Shanghai, China). Dimethyl sulfoxide (DMSO, 41639) was obtained from Sigma-Aldrich (St. Louis, MO). 3–(4,5-dimethylthiazol-2-yl)-5–(3-carboxymethoxyphenyl)-2–(4-sulfophenyl)-2H-tetrazolium (MTS, G1111) was purchased from Promega (Madison, WI, USA). All cell lines were cultured in RPMI-1640 medium supplemented with 10% FBS, penicillin (100 units/mL) and streptomycin ([…]) at 37 °C in a humidified atmosphere containing 5% CO2.
(§2) Cell viability was measured via MTS assay. RKO, SW620, SW480 and NCM460 cells were seeded in 96-well plates at a density of 5000 cells per well for 24 h. After treatment with the test compounds at indicated concentration for another 48 h or 72 h at 37 °C, MTS solution was added to each well and incubated for another 30 min at 37 °C. Then, the absorbance at 490 nm was measured by a BioTek Synergy H4 microplate Reader (Vermont, USA). The IC50 values were calculated with Graphpad 7.0 software packages.
For orientation: Tetrazolium assays rely on reduction of a dye to a coloured formazan, in cell work by metabolically active cells.

For data set [1], the system named is SW620 cells. As to the kind of experiment: MTS cell viability assay, SW620 cells. Format: cell-based. The conditions noted are these: Homo sapiens.
Source text: as §1, §2

The nature of data set [2]: MTS cell viability assay, NCM460 normal colon epithelial cells. Format: cell-based, human. The conditions noted are these: human, NCM460 normal colon epithelial cells, 10 μM.
Source text: as §1, §2

The next data set deals with NCM460 cells. The data set is described as above. Format: cell-based, human. The note with it: Homo sapiens, 48 h.
Source text: as §1, §2

For another data set, the target named is T1, BRD4 (BD2) (Homo sapiens, UniProt O60885).
T1 construct: purchased Reaction Biology Corp. RD-11-158
As to the kind of experiment: HTRF assay BRD4 (BD2). The data set is classed as binding. The note with it: read-out: Inhibitory rate at 10 μM, BRD4 (BD2). On the procedure:
In brief, compounds were serially diluted in Echo plate according to the plate map and DMSO’s final fraction is 0.1%. Then, transferring compounds and DMSO to 384-well assay plate by Echo. After that, 2× Protein and Peptide Mix was added to the assay plate and 2× Detection Mix was then added to assay plate and shook for 30 s. After incubating the plate at room temperature for 1.5 h, the HTRF signals (Excitation wavelength at 340 nm, Emission wavelength at 615 & 665 nm) was read on EnVision (PerkinElmer, UK). (+)-JQ1 (BPS Bioscience, Cat. No. 27402) was used as a positive control. BRD4-1 (RD-11–157) and BRD4-2 (RD-11–158) were purchased from Reaction Biology Corp. (PENN, USA). For Curve fitting, the inhibition values was calculated in Excel using Equation (1): Inhibition %=(Max-Signal)/(Max-Min)*100, and the IC50 values was calculated in XL-Fit using Equation (2): Y = Bottom + (Top-Bottom)/(1+(IC50/X)[…]), Y is %inhibition and X is compound concentration.

In data set [3] the test system is SW620 cells. Kind of data set: Colony formation, SW620 cells. The data set is classed as cell-based, human. The conditions noted are these: 0 to 32 μM for 24 h, then 10 days. On the procedure: SW620 and SW480 cells were seeded in 6-well plates (1000 cells per well) and cultured in RPMI-1640 medium containing 10% FBS overnight. After the cells treatment with DMSO or compound ID-11 (4, 8, 16, and 32 μM) for 24 h, the culture medium was replaced by fresh RPMI-1640 medium (containing 10% FBS) and continue culturing for another 10 days. Then the cells were washed with PBS and fixed with methanol for 15 min and stained with 0.1% crystal violet for another 30 min. Finally, the cells were washed with running water, air-dried and visualised by photographing.

Data set [4] concerns SW620 cells. Kind of data set: Cell cycle analysis (PI, flow cytometry), SW620 cells. Format: cell-based, human. The note with it: SW620, 16 μM, 24 h. On the procedure: (§3) Cells were seeded in 6-well plates (40,000 cells per well) and cultured in RPMI-1640 medium containing 10% FBS overnight. Then the cells were exposed to DMSO or compound ID-11 (8 or 16 μM) for 24 h. After that, cells were collected, washed with cold PBS for twice and fixed in 75% ethanol overnight at 4 °C. Subsequently, ethanol was removed and suspended in PBS for twice, and then RNase A and propidium iodide (PI) (Multi Sciences, Hangzhou, China) was added and keep in the darkness for 30 min. Finally, the percentages of cells in different cell cycle phases were measured using a FACS Calibur flow cytometer (Bectone Dickinson, San Jose, CA, USA).
For orientation: In flow cytometry, cells or beads pass a laser one at a time.

For data set [5], the system named is SW480 cells. As to the kind of experiment: Cell cycle analysis (PI, flow cytometry), SW480 cells. Format: cell-based, human. The note with it: SW480, 16 μM, 24 h. On the procedure:
as §3

For data set [6], the system named is SW480 cells. Kind of data set: Annexin V-FITC/PI apoptosis analysis, SW480 cells. The conditions noted are these: SW480, 16 μM, 24 h. The data set is classed as cell-based, human. On the procedure:
Cell apoptosis was determined using Annexin V-FITC/PI Apoptosis Detection Kit (BD Biosciences, New Jersey, USA) in according with manufacturer's instruction. Briefly, cells were cultured in 6-well plates (40 000 cells per well) till reaching logarithmic growth phase and then treatment with DMSO or compound ID-11 (8 or 16 μM) for 24 h. Afterwards, the cells were harvested, washed with PBS for twice and stained with 100 μL of the mixture of Annexin V/FITC and PI in binding buffer (v/v, 5: 5: 100) in the darkness for 30 min. Another 200 μL binding buffer was added before detection. The apoptotic cells were then analysed by FACS Calibur flow cytometry immediately.

In data set [7] the test system is SW480 cells. Kind of data set: Western blot assay, SW480 cells. Format: cell-based, human. The note with it: 24 h. On the procedure:
Cells were cultured in 6-well plates at a density of 40,000 cells per well overnight, and then exposed to selected compounds at different concentrations for 24 h. Subsequently, the cells were lysed in lysate buffer containing 50 mM Tris-HCl (PH 6.8), 2% SDS, 0.1% bromophenol blue, 1.5% DTT, 10% glycerol. The total protein extracts were boiled, sonicated, separated by 10–12% SDS-PAGE gels and transferred to polyvinylidene fluoride (PVDF) membranes. Then the membranes were blocked with 5% non-fat milk at room temperature for 1 h and incubated with primary antibodies at 4 °C overnight. After that, membranes were washed with 1× TBST for three times and incubated with secondary antibody at room temperature for 2 h. Finally, after washing with 1× TBST for three times, the bolts were visualised by an enhanced chemiluminescence kit (Beyotime, China) using the Amersham Imager 600 system (GE Healthcare Life Science, Shanghai, China).
On the technique in general: In western blotting, separated proteins are transferred to a membrane and probed.

One may read the viability as a per cent measure of how many cells are alive, often set against a control. The IC50 is the midpoint of a concentration-inhibition curve. For the molecule `O=c1ccc2cc(CSC(=S)n3ccnc3)ccc2o1` [ID-11, (2-Oxo-2H-chromen-6-yl)methyl 1H-imidazole-1-carbodithioate], the viability at 10 µM is 29.4% in the data set with RKO cells (10 μM) and 43.9% in the data set on SW620 cells [1] (SW-620, 10 μM, 72 h). The 50% inhibitory concentration (IC50) in the data set with RKO cells was determined as 6.4 µM; in the data set with SW620 cells [1] (SW-620, 72 h) it was 8.81 µM; in the data set on NCM460 cells, 23.9 µM. The viability at 48 h, 10 µM in [2] is 80.8%. In addition, the inhibition at 10 µM at BRD4 (BD2) is 35.7%. Further, the colony formation entry with SW620 cells [3] is listed as “effectively inhibited”. In addition, the “cell cycle distribution G2 (G2/M phase)” value with SW620 cells [4] is 33.13%; in the data set with SW480 cells [5], 21.03%. The total apoptosis rate in the data set on SW480 cells [6] is reported as 23.23%. For the same molecule, the “expression level of cdc2” value in the data set with SW480 cells [7] (SW480, 0 to 16 μM) is on record as “decreased in a concentration-dependent way”. Further, the “expression level of cleaved PARP” value with SW480 cells [7] (SW480, 0 to 16 μM) is recorded as “increased in a dose-dependent way”. In addition, in the data set on SW480 cells [7] (SW480, 0 to 16 μM), the “expression level of cyclin B1” value is “decreased in a concentration-dependent way”. For the same molecule, the “protein expression level of Bcl-2” value in the data set on SW480 cells [7] (SW480, 0 to 24 μM) is on record as “decreased”. For the same molecule, the “protein expression level of c-Myc” value with SW480 cells [7] (SW480, 0 to 24 μM) was “decreased”.

The values are drawn from paper PMC8759731, “Design, synthesis, and evaluation of novel coumarin-dithiocarbamate derivatives (IDs) as anti-colorectal cancer agents” (Journal of Enzyme Inhibition and Medicinal Chemistry, 2021).
